The record followed here is patent US10428045B2, “Benzazepine compounds, conjugates, and uses thereof” (Silverback Therapeutics, Inc., priority 2017, dated 2019).

The EC50 is the concentration giving half of the maximal effect. Lower therefore signals higher potency in that assay.

What all share (type): cell-based
Assay [1] addresses T1, hTLR8 (Homo sapiens, UniProt Q9NR97).
T1 construct: host or cells: HEK-Blue hTLR8 (HEK293-derived reporter cell line)
T1 sequence (Q9NR97 27-1041): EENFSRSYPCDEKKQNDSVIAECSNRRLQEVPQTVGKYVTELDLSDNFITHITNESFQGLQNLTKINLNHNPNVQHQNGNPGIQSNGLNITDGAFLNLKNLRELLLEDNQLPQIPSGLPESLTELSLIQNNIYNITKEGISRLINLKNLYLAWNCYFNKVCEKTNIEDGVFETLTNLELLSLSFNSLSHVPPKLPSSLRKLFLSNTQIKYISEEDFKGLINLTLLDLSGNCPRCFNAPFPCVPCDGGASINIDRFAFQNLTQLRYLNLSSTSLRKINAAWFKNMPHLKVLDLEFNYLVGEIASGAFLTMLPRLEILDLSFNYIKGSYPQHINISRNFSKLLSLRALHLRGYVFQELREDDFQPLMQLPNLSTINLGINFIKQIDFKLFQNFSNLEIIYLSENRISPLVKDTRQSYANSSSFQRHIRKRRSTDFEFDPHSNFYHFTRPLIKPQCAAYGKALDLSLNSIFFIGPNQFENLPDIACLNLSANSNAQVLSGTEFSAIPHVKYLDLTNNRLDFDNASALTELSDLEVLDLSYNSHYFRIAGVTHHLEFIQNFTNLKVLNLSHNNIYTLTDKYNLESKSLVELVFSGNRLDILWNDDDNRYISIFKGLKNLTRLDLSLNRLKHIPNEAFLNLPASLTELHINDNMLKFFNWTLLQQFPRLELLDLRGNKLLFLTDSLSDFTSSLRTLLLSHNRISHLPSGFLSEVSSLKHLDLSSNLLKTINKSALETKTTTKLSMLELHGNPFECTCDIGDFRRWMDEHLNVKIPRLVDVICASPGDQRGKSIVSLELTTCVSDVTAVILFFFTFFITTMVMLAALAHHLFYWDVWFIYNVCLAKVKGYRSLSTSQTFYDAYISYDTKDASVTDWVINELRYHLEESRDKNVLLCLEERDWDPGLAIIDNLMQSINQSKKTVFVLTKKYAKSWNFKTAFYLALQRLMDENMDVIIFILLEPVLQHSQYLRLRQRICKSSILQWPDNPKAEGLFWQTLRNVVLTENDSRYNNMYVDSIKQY
Nature of the assay: TLR7/TLR8 reporter assay, HEK-Blue hTLR8 reporter cells. To be noted: 17 hours, optical density at 640 nm. As for the experimental part: (§1) Reporter cells lines (namely HEK-Blue Null1, HEK-Blue hTLR7 and HEK-Blue hTLR8) are obtained from InvivoGen. Cells are passed/expanded/stored in liquid nitrogen per supplier's instruction. The cells are typically split twice per week in the growth media of DMEM supplemented with 10% fetal bovine serum, 1× NEAA, 1 mM Pyruvate, 2 mM glutamine, 50 μg/mL penicillin, 50 U/mL streptomycin (each from Gibco) in the presence of the following antibiotics, as shown in Table 3:
(§2) Test samples (at desired concentrations diluted in DMEM) are added to the 96-well assay plate, 20 μL per well. Reporter cells are harvested from the tissue culture flasks by incubation in PBS at 37° C. for two minutes after the media in the flask is removed and cells rinsed with PBS. Cells are counted and diluted in the HEK-Blue Detection media at 0.22×10^6 cells/mL. Then 180 μL of cells are added to the assay plate containing the 20 μL of test samples, and incubated for 17 hours at 37° C. in a 5% CO2 humidified incubator. Optical density at 640 nm is analyzed using an Envision (Perkin Elmer) plate reader.
(In general: Reporter assays use an easily measured gene product as a stand-in for the process of interest.)

In assay [2] the target is T2, hTLR7 (Homo sapiens, UniProt Q9NYK1).
T2 construct: host or cells: HEK-Blue hTLR7 (HEK293-derived reporter cell line)
T2 sequence (Q9NYK1 27-1049): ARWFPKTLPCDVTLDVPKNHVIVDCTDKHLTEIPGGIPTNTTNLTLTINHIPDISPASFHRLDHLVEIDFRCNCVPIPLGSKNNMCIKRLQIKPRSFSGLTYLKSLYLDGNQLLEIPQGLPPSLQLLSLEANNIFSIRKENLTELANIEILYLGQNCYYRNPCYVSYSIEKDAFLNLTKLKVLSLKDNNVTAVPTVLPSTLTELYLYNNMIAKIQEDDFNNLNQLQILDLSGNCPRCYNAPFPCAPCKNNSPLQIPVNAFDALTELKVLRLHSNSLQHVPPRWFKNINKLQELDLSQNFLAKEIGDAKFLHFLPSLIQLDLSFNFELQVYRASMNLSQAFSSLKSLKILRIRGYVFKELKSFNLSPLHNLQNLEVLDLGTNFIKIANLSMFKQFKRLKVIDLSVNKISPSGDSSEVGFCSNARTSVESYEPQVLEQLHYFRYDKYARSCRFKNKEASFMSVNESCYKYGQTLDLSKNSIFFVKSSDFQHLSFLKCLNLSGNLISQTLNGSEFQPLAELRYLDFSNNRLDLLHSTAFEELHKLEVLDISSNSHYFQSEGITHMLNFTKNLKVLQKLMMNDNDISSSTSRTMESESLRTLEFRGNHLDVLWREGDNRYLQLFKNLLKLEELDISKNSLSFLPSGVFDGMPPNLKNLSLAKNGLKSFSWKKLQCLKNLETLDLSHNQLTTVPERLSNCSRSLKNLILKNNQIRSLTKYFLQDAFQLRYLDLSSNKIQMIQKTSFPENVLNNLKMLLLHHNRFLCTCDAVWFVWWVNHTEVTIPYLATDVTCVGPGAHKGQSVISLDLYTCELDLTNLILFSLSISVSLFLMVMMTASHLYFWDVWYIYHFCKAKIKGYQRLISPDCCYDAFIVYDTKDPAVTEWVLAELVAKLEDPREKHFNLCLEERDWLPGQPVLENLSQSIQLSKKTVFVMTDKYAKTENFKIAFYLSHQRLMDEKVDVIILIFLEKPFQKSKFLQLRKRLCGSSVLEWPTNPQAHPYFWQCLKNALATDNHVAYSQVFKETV
Nature of the assay: TLR7/TLR8 reporter assay, HEK-Blue hTLR7 reporter cells. The conditions noted are these: 17 hours, optical density at 640 nm. As for the experimental part:
as §1, §2

Assay [3] deals with Human peripheral blood mononuclear cells (PBMC). As to the kind of experiment: PBMC screening assay, TNF-α in supernatant. The conditions noted are these: TNF-α in supernatant of human PBMC, 24 hours, ELISA or HTRF. As for the experimental part:
Human peripheral blood mononuclear cells (PBMC) were obtained from BenTek, frozen at 25×10^6 cell/mL in 10% DMSO (Sigma) prepared in fetal bovine serum (Gibco) and stored in liquid nitrogen. For culture PBMC were thawed quickly in a 37° C. water bath and diluted into pre-warmed RPMI 1640 (Lonza) supplemented with 10% fetal bovine serum, 2 mM glutamine, 50 μg/mL penicillin, 50 U/mL streptomycin (all from Gibco) and centrifuged for 5 minutes at 500×g. PBMC were suspended into the growth media described above and cultured at a concentration of 1×10^6 cells per mL at 37° C. in a 5% CO2 incubator.
PBMC were thawed, suspended at a concentration of 1×10^6 cell/mL in growth media and 200 μL was aliquoted into each well of a 96-well plate for a total of 0.2×10^6 cells per well. PBMC were incubated for 16-18 hours at 37° C. in a 5% CO2 humidified incubator. The following day PBMC plates were centrifuged at 500×g for 5 minutes and the growth media was removed. 150 μL of twelve concentrations ranging from 1000 to 0.000238 nM of small molecules prepared in growth media were added to PBMC in duplicate and incubated for 24 hours at 37° C. in a 5% CO2 incubator. Prior to supernatant harvest, cells were spun at 500×g for 5 minutes to remove cell debris. TNF-α activity was assessed in the supernatant by ELISA (eBioscience) or HTRF (CisBio) per the manufacturer's instructions. Optical density at 450 nm and 570 nm (ELISA) or luminescence (HTRF) was analyzed using an Envision (Perkin Elmer) plate reader, as shown in Table 5.
For orientation: An ELISA detects its analyte on a solid surface through an enzyme-linked reagent.

Structures are written as SMILES. Structures can show the parent of a compound that is named as a salt.

Turning to `CCCN(CCC)C(=O)C1=Cc2ccc(C(=O)Nc3cncc(CNC(=O)[C@@H](NC(=O)OCc4ccccc4)C(C)C)c3)cc2N=C(N)C1` [Compound 1.15, benzyl (S)-(1-(((5-(2-amino-4-(dipropyl-carbamoyl)-3H-benzo[b]azepine-8-carboxamido)pyridin-3-yl)methyl)amino)-3-methyl-1-oxobutan-2-yl)carbamate], the results for the EC50 in assay [1] and in assay [2] were less than 0.5 µM and more than 1 µM, respectively.

For the compound `CCCN(CCC)C(=O)C1=Cc2ccc(C(=O)Nc3cncc(CNC(=O)[C@H](Cc4ccccc4)NC(=O)OCc4ccccc4)c3)cc2N=C(N)C1` [Compound 1.16, benzyl (S)-(1-(((5-(2-amino-4-(dipropyl-carbamoyl)-3H-benzo[b]azepine-8-carboxamido)pyridin-3-yl)methyl)amino)-1-oxo-3-phenylpropan-2-yl)carbamate], the EC50 in assay [1] was 0.5 to 1 µM; in assay [2], more than 1 µM.

Consider `CCCN(CCC)C(=O)C1=Cc2ccc(C(=O)Nc3cncc(CNC(=O)[C@@H]4CCCN4C(=O)OCc4ccccc4)c3)cc2N=C(N)C1` [Compound 1.17, benzyl (S)-2-(((5-(2-amino-4-(dipropyl-carbamoyl)-3H-benzo[b]azepine-8-carboxamido)pyridin-3-yl)methyl)carbamoyl)pyrrolidine-1-carboxylate], for which the EC50 is less than 0.5 µM in assay [1] and more than 1 µM in assay [2].

On to `CCCN(CCC)C(=O)C1=Cc2ccc(C(=O)Nc3cccc([C@H]4CN(Cc5ccccc5)C[C@@H]4C(=O)OC)c3)cc2N=C(N)C1` [Compound 1.18, methyl (3R,4S)-4-(3-(2-amino-4-(dipropylcarbamoyl)-3H-benzo[b]azepine-8-carboxamido)phenyl)-1-benzylpyrrolidine-3-carboxylate trifluoroacetate salt], for which the EC50 in assay [1] and in assay [2] was more than 1 µM throughout.

In assay [3], `CCCN(CCC)C(=O)C1=Cc2ccc(C(=O)NCC3OB(O)c4ccccc43)cc2N=C(N)C1` (stereo not drawn) [Compound 1.47, 2-amino-N^8-((1-hydroxy-1,3-dihydro-benzo[c][1,2]oxaborol-3-yl)methyl)-N4,N4-dipropyl-3H-benzo[b]azepine-4,8-dicarboxamide] returned an EC50 of 0.5 to 1 µM.

`CCCN(CCC)C(=O)C1=Cc2ccc(C(=O)Nc3cnc4c(c3)CN(Cc3ccccc3)CC4)cc2N=C(N)C1` [Compound 1.48, 2-amino-N^8-(6-benzyl-5,6,7,8-tetrahydro-1,6-naphthyridin-3-yl)-N^4,N^4-dipropyl-3H-benzo[b]azepine-4,8-dicarboxamide]: in assay [3], the EC50 is less than 0.5 µM.

Compound `CCCN(CCC)C(=O)C1=Cc2ccc(C(=O)NCC3OB(O)c4cc(NC(=O)OCc5ccccc5)ccc43)cc2N=C(N)C1` (stereo not drawn) [Compound 1.49, benzyl (3-((2-amino-4-(dipropylcarbamoyl)-3H-benzo[b]azepine-8-carboxamido)methyl)-1-hydroxy-1,3-dihydrobenzo[c][1,2]oxaborol-6-yl)carbamate TFA salt] showed an EC50 in assay [3] of 0.5 to 1 µM.

Take `CCCN(CCC)C(=O)C1=Cc2ccc(C(=O)Nc3cnc4c(c3)CNCC4)cc2N=C(N)C1` [Compound 1.50, 2-amino-N^4,N^4-dipropyl-N^8-(5,6,7,8-tetrahydro-1,6-naphthyridin-3-yl)-3H-benzo[b]azepine-4,8-dicarboxamide]: the EC50 in assay [3] was less than 0.5 µM.

In the case of `CCCN(CCC)C(=O)C1=Cc2ccc(C(=O)Nc3cncc(CNC(=O)[C@@H](N)C(C)C)c3)cc2N=C(N)C1` [Compound 1.51, (S)-2-amino-N^8-(5-((2-amino-3-methylbutanamido)methyl)pyridin-3-yl)-N^4,N^4-dipropyl-3H-benzo[b]azepine-4,8-dicarboxamide], the EC50 in assay [3] lay within 1 to 3 µM.

The compound `CCCN(CCC)C(=O)C1=Cc2ccc(C(=O)Nc3ccc(N4CCCC(N)C4)nc3)cc2N=C(N)C1` (stereo not drawn) [Compound 1.56, 2-amino-N^8-(6-(3-aminopiperidin-1-yl)pyridin-3-yl)-N^4,N^4-dipropyl-3H-benzo[b]azepine-4,8-dicarboxamide] returned an EC50 in assay [3] of 1 to 3 µM.

As for `CCCN(CCC)C(=O)C1=Cc2ccc(C(=O)Nc3ccc(N4CCC(N)CC4)nc3)cc2N=C(N)C1` [Compound 1.57, 2-amino-N^8-(6-(4-aminopiperidin-1-yl)pyridin-3-yl)-N^4,N^4-dipropyl-3H-benzo[b]azepine-4,8-dicarboxamide tris HCl salt], the EC50 in assay [3] is less than 0.5 µM.

`CCCN(CCC)C(=O)C1=Cc2ccc(C(=O)Nc3cncc(C4CCNC4)c3)cc2N=C(N)C1` (stereo not drawn) [Compound 1.58, 2-amino-N^4,N^4-dipropyl-N^8-(5-(pyrrolidin-3-yl)pyridin-3-yl)-3H-benzo[b]azepine-4,8-dicarboxamide] registered an EC50 in assay [3] of 0.5 to 1 µM.

In the case of `CCCN(CCC)C(=O)C1=Cc2ccc(NC(=O)c3cccnc3)cc2N=C(N)C1` [Compound 1.62, 2-amino-8-(nicotinamido)-N,N-dipropyl-3H-benzo[b]azepine-4-carboxamide], in assay [3], the EC50 fell in the range of 0.5 to 1 µM.

In the case of `CCCN(CCC)C(=O)C1=Cc2ccc(S(=O)(=O)Nc3cccnc3)cc2N=C(N)C1` [Compound 1.63, 2-amino-N,N-dipropyl-8-(N-(pyridin-3-yl)sulfamoyl)-3H-benzo[b]azepine-4-carboxamide], the EC50 in assay [3] was 0.5 to 1 µM.
